Assay results reported in the supplement of paper PMC10307832.

Columns and labels:
Assay in all cases: relative viability (nuclei count vs DMSO), 5 days (fraction); higher = more cells survive
Tosedostat + Trametinib = compound: CC(C)C[C@@H](C(=O)N[C@H](C(=O)OC1CCCC1)c1ccccc1)[C@H](O)C(=O)NO [Tosedostat] + CC(=O)Nc1cccc(-n2c(=O)n(C3CC3)c(=O)c3c(Nc4ccc(I)cc4F)n(C)c(=O)c(C)c32)c1 [Trametinib] (partner 0.02 µM)
How it was run: (§1)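 Values are medians from duplicate plates. Each reflects relative viability, defined as the nuclei count of treated wells over that of vehicle wells. Lung cancer cell lines in 1536-well plates were pin-tool dosed one day after seeding with one drug alone or with a fixed anchor-drug dose plus five library-drug doses (not always all listed) in √10 steps, then fixed, stained and imaged at 4× after 5 days.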

Tosedostat + Pictilisib = compound: CC(C)C[C@@H](C(=O)N[C@H](C(=O)OC1CCCC1)c1ccccc1)[C@H](O)C(=O)NO [Tosedostat] + CS(=O)(=O)N1CCN(Cc2cc3nc(-c4cccc5[nH]ncc45)nc(N4CCOCC4)c3s2)CC1 [Pictilisib] (partner 1 µM)
How it was run: as §1

Tosedostat + AZD7762 = compound: CC(C)C[C@@H](C(=O)N[C@H](C(=O)OC1CCCC1)c1ccccc1)[C@H](O)C(=O)NO [Tosedostat] + NC(=O)Nc1cc(-c2cccc(F)c2)sc1C(=O)N[C@H]1CCCNC1 [AZD7762] (partner 0.2 µM)
How it was run: as §1

[1] = compound: CC1=NN=C(O1)C2=NN=C(C=C2)N3CCC(CC3)OC4=C(C=CC(=C4)F)Cl + N=C(N)NC(=N)NCCc1ccccc1 [Phenformin] (partner 250 µM)
How it was run: as §1

Cell Line | relative viability (Tosedostat + Trametinib; first compound 0.02 µM) | relative viability (Tosedostat + Trametinib; first compound 0.06325 µM) | relative viability (Tosedostat + Trametinib; first compound 0.2 µM) | relative viability (Tosedostat + Trametinib; first compound 0.6325 µM) | relative viability (Tosedostat + Trametinib; first compound 2 µM) | relative viability (Tosedostat + Pictilisib; first compound 0.02 µM) | relative viability (Tosedostat + Pictilisib; first compound 0.06325 µM) | relative viability (Tosedostat + Pictilisib; first compound 0.2 µM) | relative viability (Tosedostat + Pictilisib; first compound 0.6325 µM) | relative viability (Tosedostat + Pictilisib; first compound 2 µM) | relative viability (Tosedostat + AZD7762; first compound 0.02 µM) | relative viability (Tosedostat + AZD7762; first compound 0.06325 µM) | relative viability (Tosedostat + AZD7762; first compound 0.2 µM) | relative viability (Tosedostat + AZD7762; first compound 0.6325 µM) | relative viability (Tosedostat + AZD7762; first compound 2 µM) | relative viability ([1]; first compound 0.253 µM) | relative viability ([1]; first compound 0.8 µM) | relative viability ([1]; first compound 2.53 µM) | relative viability ([1]; first compound 8 µM)
HOP-62 | 0.41 | 0.442 | 0.404 | 0.495 | 0.451 | 0.94 | 0.676 | 0.717 | 0.487 | 0.867 | 0.56 | 0.556 | 0.753 | 0.345 | 0.379 | 0.592 | 0.352 | 0.411 | 0.349
SW 1573 | 0.59 | 0.537 | 0.553 | 0.472 | 0.505 | 0.477 | 0.485 | 0.484 | 0.485 | 0.388 |  |  |  |  |  | 0.371 | 0.329 | 0.351 | 0.363
IA-LM |  |  |  |  |  | 0.447 | 0.308 | 0.36 | 0.302 | 0.403 |  |  |  |  |  |  |  |  | 
NCI-H520 | 0.731 | 0.733 | 0.645 | 0.699 | 0.67 | 0.261 | 0.277 | 0.3 | 0.283 | 0.396 |  |  |  |  |  | 0.509 | 0.414 | 0.741 | 0.578
COR-L23 | 0.698 | 0.594 | 0.587 | 0.491 | 0.508 | 0.955 | 0.784 | 0.666 | 0.649 | 0.745 |  |  |  |  |  | 0.423 | 0.385 | 0.425 | 0.363
NCI-H2023 | 0.607 | 0.496 | 0.465 | 0.45 | 0.502 | 0.247 | 0.233 | 0.251 | 0.139 | 0.198 |  |  |  |  |  | 0.401 | 0.362 | 0.387 | 0.324
NCI-H2228 | 0.666 | 0.57 | 0.466 | 0.534 | 0.421 | 0.438 | 0.492 | 0.347 | 0.354 | 0.217 |  |  |  |  |  | 0.313 | 0.257 | 0.294 | 0.401
COR-L 105 | 0.493 | 0.431 | 0.422 | 0.476 | 0.369 | 0.451 | 0.414 | 0.379 | 0.319 | 0.356 |  |  |  |  |  | 0.513 | 0.475 | 0.568 | 0.642
NCI-H1650 | 0.79 | 0.627 | 0.552 | 0.533 | 0.479 | 0.696 | 0.599 | 0.652 | 0.645 | 0.558 |  |  |  |  |  |  | 0.403 | 0.445 | 0.453
NCI-H1299 |  |  |  |  |  | 0.813 | 0.77 | 0.646 | 0.485 | 0.316 |  |  |  |  |  |  |  |  | 
